{
  "source": "paper PMC8958428",
  "about": "(Yeast (Chichester, England), 2021)",
  "target": "Hem1p (Hem1-His6) (Saccharomyces cerevisiae, UniProt P09950)",
  "sequence (P09950 10-548)": "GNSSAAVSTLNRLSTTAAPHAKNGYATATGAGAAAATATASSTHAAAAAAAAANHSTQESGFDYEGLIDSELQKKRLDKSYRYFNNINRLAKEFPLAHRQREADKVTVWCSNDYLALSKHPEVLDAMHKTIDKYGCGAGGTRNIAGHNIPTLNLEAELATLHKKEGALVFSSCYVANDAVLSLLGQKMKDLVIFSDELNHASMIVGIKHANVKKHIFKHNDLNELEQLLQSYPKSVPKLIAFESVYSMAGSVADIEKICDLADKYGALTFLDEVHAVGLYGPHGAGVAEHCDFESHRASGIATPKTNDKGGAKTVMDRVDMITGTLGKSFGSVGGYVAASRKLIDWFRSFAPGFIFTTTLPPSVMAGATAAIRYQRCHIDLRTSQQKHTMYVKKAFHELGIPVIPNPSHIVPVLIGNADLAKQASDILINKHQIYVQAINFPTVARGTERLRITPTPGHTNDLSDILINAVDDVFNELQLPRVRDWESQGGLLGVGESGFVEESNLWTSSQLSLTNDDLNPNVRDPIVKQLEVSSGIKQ",
  "test": "ALA synthase activity, control reactions",
  "format": "biochemical",
  "conditions": "concentration not told",
  "data": [
    {"smiles": "N[C@@H](CS)C(=O)O", "note": "[L-cysteine]", "values": [
      {"measurement": "ALA synthase activity, control reactions", "result": "Control reactions showed that Hem1p was inhibited by both L-serine and L-cysteine"}
    ]},
    {"smiles": "N[C@@H](CO)C(=O)O", "note": "[L-serine]", "values": [
      {"measurement": "ALA synthase activity, control reactions", "result": "Control reactions showed that Hem1p was inhibited by both L-serine and L-cysteine"}
    ]}
  ]
}
